The values that follow are results of earlier work, collected in patent US20240269083A1, “PROLONGED-RELEASE PHARMACEUTICAL COMPOSITION FOR ORAL ADMINISTRATION OF SULTIAME” (ADVICENNE, priority 2021, published 2024).

The data set relates to erythrocytes. As to conditions: single doses of Ospolot, fasting, healthy subjects.

As to `NS(=O)(=O)c1ccc(N2CCCCS2(=O)=O)cc1` [sultiame, Sultiame], the affinity for erythrocytes entry is recorded as “very strong affinity for erythrocytes”.
